# Laboratory results from patent US12077503B2, “Substituted cyclic amides and their use as herbicides” (FMC CORPORATION, priority 2015, dated 2024).
# Key:
# Type in all cases: in vivo
# [1] = tested on: sedge, umbrella (small-flower umbrella sedge, Cyperus difformis); assay: Test B flooded paddy test; settings: Cyperus difformis, 250 g ai/ha, Flood; 0 to 100 scale where 0 is no effect and 100 is complete control; read-out: Sedge, Umbrella plant response rating
# Outline: (§1)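 Greenhouse paddy pots with 2-leaf stage plants received compound by direct addition to floodwater 3 cm deep, kept at that level. Scored visually at 13–15 d versus controls (0 no effect; 100 complete control).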
# [2] = tested on: ducksalad (Heteranthera limosa); assay: Test B flooded paddy test; settings: Heteranthera limosa, 250 g ai/ha, Flood; 0 to 100 scale where 0 is no effect and 100 is complete control; read-out: Ducksalad plant response rating
# Outline: as §1
# [3] = tested on: barnyardgrass (Echinochloa crus-galli); assay: Test B flooded paddy test; settings: Echinochloa crus-galli, 250 g ai/ha, Flood; 0 to 100 scale where 0 is no effect and 100 is complete control; read-out: Barnyardgrass plant response rating
# Outline: as §1
# rice (Oryra sativa) = assay: Test B flooded paddy test; settings: Oryza sativa, 250 g ai/ha, Flood; 0 to 100 scale where 0 is no effect and 100 is complete control; read-out: Rice plant response rating
# Outline: as §1
# [4] = tested on: Galium (catchweed bedstraw, Galium aparine); assay: Test A postemergence; settings: Galium, post-emergence, 240 h, Postemergence, read-out: Galium plant response rating (0 to 100 scale)
# Outline: (§2)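 Compounds were formulated in a non-phytotoxic solvent mixture with surfactant and applied as a preemergence directed soil spray after seeding, or sprayed postemergence over plants 2 to 10 cm tall at the one- to two-leaf stage. Evaluation after about 10 d compared treated with untreated controls, using a scale from 0 (no effect) to 100 (complete control).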
# [5] = tested on: ragweed (common ragweed, Ambrosia elatior); assay: Test A postemergence; settings: Ambrosia artemisiifolia, post-emergence, 240 h, Postemergence, read-out: Ragweed plant response rating (0 to 100 scale)
# Outline: as §2
# corn (Zea mays) = assay: Test A postemergence; settings: Zea mays, post-emergence, 240 h, Postemergence, read-out: Corn plant response rating (0 to 100 scale)
# Outline: as §2
# Kochia (Kochia scoparia) [6] = assay: Test A postemergence; settings: Bassia scoparia, post-emergence, 240 h, Postemergence, read-out: Kochia plant response rating (0 to 100 scale)
# Outline: as §2
# [7] = tested on: wheat (Triticum aestivum); assay: Test A postemergence; settings: Triticum aestivum, post-emergence, 240 h, Postemergence, read-out: Wheat plant response rating (0 to 100 scale)
# Outline: as §2
# [8] = tested on: barnyardgrass (Echinochloa crus-galli); assay: Test A postemergence; settings: Echinochloa crus-galli, post-emergence, 240 h, Postemergence
# Outline: as §2
# [9] = tested on: blackgrass (Alopecurus myosuroides); assay: Test A postemergence; settings: Alopecurus myosuroides, post-emergence, 240 h, Postemergence, read-out: Blackgrass plant response rating (0 to 100 scale)
# Outline: as §2
# [10] = tested on: ryegrass, Italian (Italian ryegrass, Lolium multiflorum); assay: Test A postemergence; settings: Lolium multiflorum, post-emergence, 240 h, Postemergence, read-out: Ryegrass, Italian plant response rating (0 to 100 scale)
# Outline: as §2
# [11] = tested on: giant foxtail (Setaria faberii); assay: Test A postemergence; settings: Setaria faberi, post-emergence, 240 h, Postemergence, read-out: Foxtail, Giant plant response rating (0 to 100 scale)
# Outline: as §2
# [12] = tested on: pigweed (Amaranthus retroflexus); assay: Test A postemergence; settings: Amaranthus retroflexus, post-emergence, 240 h, Postemergence, read-out: Pigweed plant response rating (0 to 100 scale)
# Outline: as §2
# [13] = tested on: ragweed (common ragweed, Ambrosia elatior); assay: Test A preemergence; settings: Ambrosia artemisiifolia, pre-emergence, 240 h, 0 to 100 scale where 0 is no effect and 100 is complete control, read-out: Ragweed plant response rating
# Outline: as §2
# Kochia (Kochia scoparia) [14] = assay: Test A preemergence; settings: Bassia scoparia, pre-emergence, 240 h, 0 to 100 scale where 0 is no effect and 100 is complete control, read-out: Kochia plant response rating
# Outline: as §2
# [15] = tested on: barnyardgrass (Echinochloa crus-galli); assay: Test A preemergence; settings: Echinochloa crus-galli, pre-emergence, 240 h, 0 to 100 scale where 0 is no effect and 100 is complete control, read-out: Barnyardgrass plant response rating
# Outline: as §2
# [16] = tested on: ryegrass, Italian (Italian ryegrass, Lolium multiflorum); assay: Test A preemergence; settings: Lolium multiflorum, pre-emergence, 240 h, 0 to 100 scale where 0 is no effect and 100 is complete control, read-out: Ryegrass, Italian plant response rating
# Outline: as §2
# [17] = tested on: giant foxtail (Setaria faberii); assay: Test A preemergence; settings: Setaria faberi, pre-emergence, 240 h, 0 to 100 scale where 0 is no effect and 100 is complete control, read-out: Foxtail, Giant plant response rating
# Outline: as §2
# [18] = tested on: pigweed (Amaranthus retroflexus); assay: Test A preemergence; settings: Amaranthus retroflexus, pre-emergence, 240 h, 0 to 100 scale where 0 is no effect and 100 is complete control, read-out: Pigweed plant response rating
# [19] = 125 g ai/ha, visual rating about 10 d after treatment
# [20] = 31 g ai/ha, 0 is no effect, 100 is complete control
# [21] = 125 g ai/ha, preemergence, visual injury rating, approximately 10 d
compound,measurement,setting,value
O=C(Nc1cccc(F)c1F)[C@H]1C(=O)N(CC(F)F)C[C@@H]1c1cccc(C(F)(F)F)c1 [Compound 1296],pest or weed control at 250 g/ha,[1],0%
same,pest or weed control at 250 g/ha,[2],0%
same,pest or weed control at 250 g/ha,[3],15%
same,pest or weed control at 250 g/ha,rice (Oryra sativa),30%
same,pest or weed control at 125 g/ha,[4]; [19],0%
same,pest or weed control at 31 g/ha,[4]; [20],0%
same,pest or weed control at 125 g/ha,[5]; [19],0%
same,pest or weed control at 31 g/ha,[5]; [20],0%
same,plant injury at 125 g/ha,corn (Zea mays); [19],0%
same,plant injury at 31 g/ha,corn (Zea mays); [20],0%
same,pest or weed control at 125 g/ha,Kochia (Kochia scoparia) [6]; [19],0%
same,pest or weed control at 31 g/ha,Kochia (Kochia scoparia) [6]; [20],0%
same,plant injury at 125 g/ha,[7]; [19],0%
same,plant injury at 31 g/ha,[7]; [20],0%
same,pest or weed control at 125 g/ha,"[8]; 125 g ai/ha, visual rating about 10 d after treatment, read-out: Barnyardgrass plant response rating (0 to 100 scale, 0 no effect, 100 complete control)",30%
same,pest or weed control at 31 g/ha,"[8]; 31 g ai/ha, 0 is no effect, 100 is complete control, read-out: Barnyardgrass plant response rating (0 to 100 scale)",0%
same,pest or weed control at 125 g/ha,[9]; [19],0%
same,pest or weed control at 31 g/ha,[9]; [20],0%
same,pest or weed control at 125 g/ha,[10]; [19],0%
same,pest or weed control at 31 g/ha,[10]; [20],0%
same,pest or weed control at 125 g/ha,[11]; [19],30%
same,pest or weed control at 31 g/ha,[11]; [20],0%
same,pest or weed control at 125 g/ha,[12]; [19],0%
same,pest or weed control at 31 g/ha,[12]; [20],0%
same,pest or weed control at 31 g/ha,"[13]; 31 g ai/ha, Preemergence",0%
same,pest or weed control at 125 g/ha,[13]; [21],0%
same,pest or weed control at 31 g/ha,"Kochia (Kochia scoparia) [14]; 31 g ai/ha, Preemergence",0%
same,pest or weed control at 125 g/ha,Kochia (Kochia scoparia) [14]; [21],0%
same,pest or weed control at 31 g/ha,"[15]; 31 g ai/ha, Preemergence",20%
same,pest or weed control at 125 g/ha,[15]; [21],70%
same,pest or weed control at 31 g/ha,"[16]; 31 g ai/ha, Preemergence",0%
same,pest or weed control at 125 g/ha,[16]; [21],0%
same,pest or weed control at 31 g/ha,"[17]; 31 g ai/ha, Preemergence",20%
same,pest or weed control at 125 g/ha,[17]; [21],60%
same,pest or weed control at 31 g/ha,"[18]; 31 g ai/ha, Preemergence",0%
same,pest or weed control at 125 g/ha,[18]; [21],0%
